From patent US10703757B2, “Compounds and methods for CDK8 modulation and indications therefor” (Plexxikon Inc., priority 2016, dated 2020)

Test system: CDK8 (phosphorylation of STAT1 at serine 727 in A549 cells)
Assay: Cell based Phospho-STAT1 assay (IFNγ-stimulated A549 cells, AlphaLISA)
Conditions: Homo sapiens, A549, A549 cells, phospho-STAT1 after IFNγ stimulation
Procedure: Determine Inhibitor Activity Against CDK8 in Cell Based Phospho-STAT1 Assay
This assay measures the phosphorylation of the CDK8 substrate STAT1 following Interferon-gamma (IFNγ) stimulation^1. The lung carcinoma cell line A549 is seeded in a 96 well plate in 50 μL of culture media at 5×10^4 cells/well and incubated at 37° C. overnight. Serial dilutions of compounds (in total volume of 50 μL culture media) are added to the cells and incubated at 37° C. for one hour. Human IFNγ (R&D Systems) is added to the cells at a 10 ng/mL final concentration. 4 wells containing DMSO treated cells stimulated with IFNγ serve as high controls and 4 wells containing DMSO treated unstimulated cells serve as low controls. After 30 minute IFNγ stimulation at 37° C., the culture media is removed and 50 μL of 1×AlphaLISA lysis buffer (PerkinElmer GA, USA) is added to each well. 5 μL cell lysate is transferred to a 384 well AlphaPlate (PerkinElmer GA, USA) and 5 μL containing 0.156 nM Phospho-STAT1 (Ser727) rabbit monoclonal antibody (Cell Signaling Technology), 0.156 nM Mouse Anti-STAT1 antibody (BD Transduction Laboratories), and 10 μg/mL Anti-rabbit IgG AlphaLISA acceptor beads (PerkinElmer GA, USA) diluted in 1× AlphaLISA immunoassay buffer (PerkinElmer GA, USA) is added to the cell lysates and incubated at room temperature for 90 minutes. 5 μL Anti-Mouse IgG Alpha donor beads diluted in 1× AlphaLISA immunoassay buffer (PerkinElmer GA, USA) is added to the reaction mixture and incubated at room temperature for 90 minutes. Upon excitation of these beads with laser light at 680 nm, singlet oxygen is produced. This singlet oxygen is rapidly quenched, unless the AlphaLISA Anti-Rabbit IgG acceptor beads are in close proximity, in which case a proximity signal can be measured at […]. In the presence of cellular CDK8 catalytic activity, there is a very strong proximity signal. Selective CDK8 inhibitors affect a decrease in this proximity signal through a decrease in phosphorylation of STAT1 at serine 727. The percentage inhibition at individual concentrations relative to high and low controls is calculated. The data are analyzed by using nonlinear regression to generate IC50 values.

| SMILES | IC50 [nM] |
| --- | --- |
| FC(F)n1cc(-c2ccc(-c3cccn4ncc(-c5ccc(-c6cnn(C(F)F)c6)cc5)c34)cc2)cn1 [Compound P-0371, 3,4-bis(4-(1-(difluoromethyl)-1H-pyrazol-4-yl)phenyl)pyrazolo[1,5-a]pyridine] | 1000 to 10000 |
| CS(=O)(=O)N1CCC(Oc2cccc3ncc(-c4ccc(-c5cnn(C(F)F)c5)cc4)n23)CC1 [Compound P-0298, 3-(4-(1-(difluoromethyl)-1H-pyrazol-4-yl)phenyl)-5-((1-(methylsulfonyl)piperidin-4-yl)oxy)imidazo[1,2-a]pyridine] | 1000 to 10000 |
| COC(=O)CC1CCN(c2cccc3ncc(C#Cc4cnn(C)c4)n23)CC1 [Compound P-0312, methyl 2-(1-(3-((1-methyl-1H-pyrazol-4-yl)ethynyl)imidazo[1,2-a]pyridin-5-yl)piperidin-4-yl)acetate] | 1000 to 10000 |
| Cn1ncc2cc(-c3cnn4ccnc(N5CCC(C#N)CC5)c34)ccc21 [Compound P-0326, 1-[3-(1-methylindazol-5-yl)pyrazolo[1,5-a]pyrazin-4-yl]piperidine-4-carbonitrile] | 1000 to 10000 |
| CC(C)(O)C#Cc1cccn2ncc(-c3ccc(OCCN4CCCCC4)cc3)c12 [Compound P-0406, 2-methyl-4-(3-(4-(2-(piperidin-1-yl)ethoxy)phenyl)pyrazolo[1,5-a]pyridin-4-yl)but-3-yn-2-ol] | 100 to 1000 |
| Cn1cc(-c2ccc(-c3cnc4cccc(N5CCC(C)(O)CC5)n34)cc2)cn1 [Compound P-0396, 4-methyl-1-(3-(4-(1-methyl-1H-pyrazol-4-yl)phenyl)imidazo[1,2-a]pyridin-5-yl)piperidin-4-ol] | 100 to 1000 |
| Cc1nn(C)c2ccc(-c3cnc4[nH]ccc4c3C3=CCC(C#N)CC3)cc12 (centres unmarked) [Compound P-0342, 4-(5-(1,3-dimethyl-1H-indazol-5-yl)-1H-pyrrolo[2,3-b]pyridin-4-yl)cyclohex-3-ene-1-carbonitrile] | 0.1 to 100 |
| CNC(=O)C1CC=C(c2cccc3ncc(-c4ccc(-c5cnn(C)c5)cc4)n23)CC1 (centres unmarked) [Compound P-0417, N-methyl-4-(3-(4-(1-methyl-1H-pyrazol-4-yl)phenyl)imidazo[1,2-a]pyridin-5-yl)cyclohex-3-ene-1-carboxamide] | 100 to 1000 |
| Cn1cc(-c2ccc(-c3cnc4cccc(NC5CCOCC5)n34)cc2)cn1 [Compound P-0388, 3-(4-(1-methyl-1H-pyrazol-4-yl)phenyl)-N-(tetrahydro-2H-pyran-4-yl)imidazo[1,2-a]pyridin-5-amine] | 100 to 1000 |
| Cn1cc(-c2ccc(-c3cnn4cccc(C#CC5(O)CCNCC5)c34)cc2)cn1 [Compound P-0338, 4-((3-(4-(1-methyl-1H-pyrazol-4-yl)phenyl)pyrazolo[1,5-a]pyridin-4-yl)ethynyl)piperidin-4-ol] | 100 to 1000 |
| Cn1cc(-c2ccc(-c3cnc4ccc(C#N)c(N5CCC(C#N)CC5)n34)cc2)cn1 [Compound P-0339, 5-(4-cyanopiperidin-1-yl)-3-(4-(1-methyl-1H-pyrazol-4-yl)phenyl)imidazo[1,2-a]pyridine-6-carbonitrile] | 100 to 1000 |
| COC(=O)N1CCC(Oc2cccc3ncc(-c4ccc(-c5cnn(C(F)F)c5)cc4)n23)CC1 [Compound P-0291, methyl 4-((3-(4-(1-(difluoromethyl)-1H-pyrazol-4-yl)phenyl)imidazo[1,2-a]pyridin-5-yl)oxy)piperidine-1-carboxylate] | 100 to 1000 |
| CCC(O)(C#Cc1cccn2ncc(-c3ccc(-c4cnn(C)c4)cc3)c12)CC [Compound P-0373, 3-ethyl-1-(3-(4-(1-methyl-1H-pyrazol-4-yl)phenyl)pyrazolo[1,5-a]pyridin-4-yl)pent-1-yn-3-ol] | 100 to 1000 |
| Cn1cc(-c2ccc(-c3cnc4cccc(N5CCC(C(O)c6cccnc6)CC5)n34)cc2)cn1 (centres unmarked) [Compound P-0384, (1-(3-(4-(1-methyl-1H-pyrazol-4-yl)phenyl)imidazo[1,2-a]pyridin-5-yl)piperidin-4-yl)(pyridin-3-yl)methanol] | 1000 to 10000 |
| Cn1ncc2ccc(-c3cnn4cccc(N5CCC(C#N)(c6ccccn6)CC5)c34)cc21 [Compound P-0352, 1-(3-(1-methyl-1H-indazol-6-yl)pyrazolo[1,5-a]pyridin-4-yl)-4-(pyridin-2-yl)piperidine-4-carbonitrile] | 100 to 1000 |
| Cn1ncc2cc(-c3cnn4cccc(N5CCC(C)(C#N)CC5)c34)ccc21 [Compound P-0403, 4-methyl-1-(3-(1-methyl-1H-indazol-5-yl)pyrazolo[1,5-a]pyridin-4-yl)piperidine-4-carbonitrile] | 0.1 to 100 |
| Cn1cc(-c2ccc(-c3cnc4cccc(C#CC(C)(C)O)n34)cc2)cn1 [Compound P-0375, 2-methyl-4-(3-(4-(1-methyl-1H-pyrazol-4-yl)phenyl)imidazo[1,2-a]pyridin-5-yl)but-3-yn-2-ol] | 0.1 to 100 |

Results, then the molecule that gave them:

| IC50 [nM] | SMILES |
| --- | --- |
| 100 to 1000 | Cn1cc(-c2ccc(-c3cnc4cccc(C5=CCN(S(C)(=O)=O)CC5)n34)cc2)cn1 [Compound P-0419, 3-(4-(1-methyl-1H-pyrazol-4-yl)phenyl)-5-(1-(methylsulfonyl)-1,2,3,6-tetrahydropyridin-4-yl)imidazo[1,2-a]pyridine] |
| 100 to 1000 | Cn1cc(-c2ccc(-c3cnc4cccc(OC5CCOCC5)n34)cc2)cn1 [Compound P-0427, 3-(4-(1-methyl-1H-pyrazol-4-yl)phenyl)-5-((tetrahydro-2H-pyran-4-yl)oxy)imidazo[1,2-a]pyridine] |
| 0.1 to 100 | Cn1cc(-c2ccc(-c3cnc4cccc(N5CCC(C#N)(c6ccccc6)CC5)n34)cc2)cn1 [Compound P-0451, 1-(3-(4-(1-methyl-1H-pyrazol-4-yl)phenyl)imidazo[1,2-a]pyridin-5-yl)-4-phenylpiperidine-4-carbonitrile] |
| 1000 to 10000 | CCOC(=O)C1CC=C(c2cccc3ncc(-c4ccc(-c5cnn(C)c5)cc4)n23)CC1 (centres unmarked) [Compound P-0420, ethyl 4-(3-(4-(1-methyl-1H-pyrazol-4-yl)phenyl)imidazo[1,2-a]pyridin-5-yl)cyclohex-3-ene-1-carboxylate] |
| 0.1 to 100 | Cn1cc(-c2ccc(-c3cnc4cccc(N5CCC6(CCNC6=O)CC5)n34)cc2)cn1 [Compound P-0450, 8-(3-(4-(1-methyl-1H-pyrazol-4-yl)phenyl)imidazo[1,2-a]pyridin-5-yl)-2,8-diazaspiro[4.5]decan-1-one] |
| 0.1 to 100 | CCOC(=O)C1CCN(c2cccc3ncc(-c4ccc(-c5cnn(C)c5)cc4)n23)CC1 [Compound P-0447, ethyl 1-(3-(4-(1-methyl-1H-pyrazol-4-yl)phenyl)imidazo[1,2-a]pyridin-5-yl)piperidine-4-carboxylate] |
| 0.1 to 100 | Cn1cc(-c2ccc(-c3cnn4cccc(N5CCC(C#N)CC5)c34)cc2)cn1 [Compound P-0422, 1-(3-(4-(1-methyl-1H-pyrazol-4-yl)phenyl)pyrazolo[1,5-a]pyridin-4-yl)piperidine-4-carbonitrile] |
| 1000 to 10000 | O=C(NCc1ccc(-c2cnc3cccc(N4CCC5(CCNC5=O)CC4)n23)cc1)c1cccnc1 [Compound P-0449, N-(4-(5-(1-oxo-2,8-diazaspiro[4.5]decan-8-yl)imidazo[1,2-a]pyridin-3-yl)benzyl)nicotinamide] |
| 0.1 to 100 | N#CC1CCN(c2cccc3ncc(-c4ccc(-c5cnn(C(F)F)c5)cc4)n23)CC1 [Compound P-0440, 1-(3-(4-(1-(difluoromethyl)-1H-pyrazol-4-yl)phenyl)imidazo[1,2-a]pyridin-5-yl)piperidine-4-carbonitrile] |
